In US20170296573A1, “ANTITUMOR DRUG COMPRISING BETA-CYCLODEXTRIN” (JRC G. K., priority 2014, published 2017):

Tests used:
[1] = tested on: cytochrome c; test: Example 7: cytochrome c release assay in RCC4 cells; assay type: cell-based; conditions: RCC4 cells pre-treated with 2DG-bCD
Experimental: RCC4 cells grown and treated on glass cover slips were first fixed with 3.7% formaldehyde in PBS for 10 minutes. Then the cover slips were briefly exposed to 100% methanol kept in a −20° C. freezer. Cover slips were incubated with 10% serum in PBS before being stained with mouse anti-cytochrome c antibody overnight. Next morning, the cover slips were washed and blocked with 10% serum in PBS for 30 minutes. Then they were exposed to secondary anti-mouse antibody conjugated with AF488 for 30 minutes. They were washed again and exposed to propidium iodide (1 μg/mL in PBS) for 15 minutes to stain DNA in the nucleus before being washed and mounted on the glass slides. We used a Keyence BZ9000 microscope with a 100× objective lens for observation. […] (E) RCC4 cells treated with 2DG-bCD (left panel), RCC4 cells treated with 2DG-bCD-ABT (middle panel), and RCC4 cells treated with 2DG-bCD-ABT in the presence of 20 μM pan-caspase inhibitor z-VAD (right panel) were immunostained using anti-cytochrome c antibody and GFP-conjugated anti-mouse antibody. Nuclei were stained red with propidium iodide.

[2] = tested on: caspase 9; test: Example 7: caspase 9 cleavage in RCC4 cells, Western blot; assay type: cell-based
Experimental: (§1) (A and B) RCC4 cells were treated with 2DG, bCD, 2DG +bCD, or left untreated as done in Example 6. Approximately 20 μg of the whole cell lysates (WCL) were analyzed by western blotting. Bak- and Bcl-xL-bound proteins were immune-precipitated from approximately 200 μg of cell lysates and analyzed by western blotting. (C) 3 μM ABT with or without the 20 μM pan-caspase inhibitor z-VAD was added to the cells pre-treated with the combination of 2DG and bCD over 2 hours, and analyzed by Western blotting for caspase 9. […]

[3] = target: Bak-Bcl-xL complex (Homo sapiens, UniProt Q07817); test: Example 7: immunoprecipitation of Bak-bound proteins in RCC4 cells, Bcl-xL; assay type: cell-based; conditions: RCC4 cells pre-treated with 2DG and bCD, 3 μM ABT
Experimental: as §1

[4] = tested on: AKT; test: Example 2 Method A: AKT phosphorylation in RCC4 cells stimulated with IGF1, serum free; assay type: cell-based; conditions: 10 mM 2DG 2 hours, 10 mM bCD (MBCD), 0-30 ng/ml IGF1 5 minutes
Experimental: We ran 20 μg of proteins per lane for western blots. We ran 8, 10, 12.5 and 15% gels depending on the size of proteins being detected by western blots. When there are two proteins having a similar size, gel is flowed in each protein to make western blot analysis about each protein. The immunoprecipitation was undergone by adding 200 μg of protein from solubilized cells and Protein G Sepharose or Protein A Sepharose (Sigma P3296/P9242) pre-conjugated with immunoprecipitation antibody to a buffer for immunoprecipitation, and slowly rotating the tube containing the sample buffer at 4° C. overnight. The buffer for immunoprecipitation comprises 20 mM Tris Ph 7.5, 1% Triton-X100, 150 mM NaCl, phosphatase inhibitor cocktail (Cell Signaling (#58709S)), and 10% glycerol. Next morning, the content in the tube was centrifuged. The precipitate was washed with the same buffer twice and dissolved in SDS buffer. The precipitate in the solution was separated with 15% SDS-PAGE or 12.5% SDS-PAGE and analyzed by Western blotting.
The bCD used herein was MBCD.
RCC4 cells were incubated in serum free media for 2 hours with or without 10 mM 2DG. In the last hour, 10 mM bCD was added to each one subset of the cells treated/untreated with 2DG. Then 0-30 ng/ml IGF1 was added and the incubation continued for 5 minutes before the cells were harvested and analyzed by Western blotting.

[5] = tested on: UOK121 cells; test: Example 10 Test B: cyclodextrin with 2DG-ABT in UOK121 cells, live cells by trypan-blue dye exclusion; assay type: cell-based, human; conditions: 10 mM 2DG, 10 mM cyclodextrin, 0.3 μM ABT-263, 25 mM glucose
Experimental: Dead and live cells were counted by trypan-blue dye exclusion methods. These experiments were done in triplicate, and the error bars indicate the standard deviation.
(Test A) UOK121 cells were incubated in 10% serum medium with 5 mM or 10 mM α-, β-, and γ-cyclodextrins for 45 minutes. The same medium without any cyclodextrin was also incubated as a control. The cells were harvested and analyzed by Western Blots for the phosphorylation of AKT and ERK1/2 as an indicator of the AKT and ERK1/2 activations. (Test B) 10 mM 2DG was added to a medium of U0K121 cells in the presence of 25 mM glucose, and the medium was incubated for 1.5 hours. To the medium was added 10 mM α-, β-, or γ-cyclodextrin, and the medium was incubated for 30 minutes. Then, 0.3 μM ABT-263 was added thereto, and the medium was further incubated for 2 hours. Separately, a control that includes only α-, β-, or γ-cyclodextrin without 2DG or ABT-263, and another control that includes neither α-, β-, or γ-cyclodextrin, nor 2DG or ABT-263 were prepared. 2.5 hours after adding each cyclodextrin (i.e., 2 hours after adding ABT-263), all the cells were washed with the medium twice, and next day the live cells were counted by trypan-blue dye exclusion assay.

[6] = tested on: AKT; test: Example 10 Test A: AKT activation in UOK121 cells with α-, β-, γ-cyclodextrins; assay type: cell-based, human; conditions: 10% serum, 5 mM or 10 mM cyclodextrin, 45 minutes
Experimental: We ran 20 μg of proteins per lane for western blots. We ran 8, 10, 12.5 and 15% gels depending on the size of proteins being detected by western blots. When there are two proteins having a similar size, gel is flowed in each protein to make western blot analysis about each protein. The immunoprecipitation was undergone by adding 200 μg of protein from solubilized cells and Protein G Sepharose or Protein A Sepharose (Sigma P3296/P9242) pre-conjugated with immunoprecipitation antibody to a buffer for immunoprecipitation, and slowly rotating the tube containing the sample buffer at 4° C. overnight. The buffer for immunoprecipitation comprises 20 mM Tris Ph 7.5, 1% Triton-X100, 150 mM NaCl, phosphatase inhibitor cocktail (Cell Signaling (#58709S)), and 10% glycerol. […] The precipitate in the solution was separated with 15% SDS-PAGE or 12.5% SDS-PAGE and analyzed by Western blotting.
(Test A) UOK121 cells were incubated in 10% serum medium with 5 mM or 10 mM α-, β-, and γ-cyclodextrins for 45 minutes. […] The cells were harvested and analyzed by Western Blots for the phosphorylation of AKT and ERK1/2 as an indicator of the AKT and ERK1/2 activations. […] 2.5 hours after adding each cyclodextrin (i.e., 2 hours after adding ABT-263), all the cells were washed with the medium twice, and next day the live cells were counted by trypan-blue dye exclusion assay.

Bak-Bcl-xL complex, sequence (Q07817 whole entry, one chain of several): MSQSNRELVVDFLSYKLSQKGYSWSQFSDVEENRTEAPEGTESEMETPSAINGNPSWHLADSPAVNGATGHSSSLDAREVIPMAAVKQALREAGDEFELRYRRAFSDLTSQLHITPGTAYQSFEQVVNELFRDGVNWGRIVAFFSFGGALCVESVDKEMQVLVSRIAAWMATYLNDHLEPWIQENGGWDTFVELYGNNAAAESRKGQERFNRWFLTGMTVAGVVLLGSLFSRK

SMILES: CC1(C)CCC(c2ccc(Cl)cc2)=C(CN2CCN(c3ccc(C(=O)NS(=O)(=O)c4ccc(N[C@H](CCN5CCOCC5)CSc5ccccc5)c(S(=O)(=O)C(F)(F)F)c4)cc3)CC2)C1 [ABT, ABT-263]
- release of cytochrome c from mitochondria ([1]; with or without 20 μM z-VAD): took place only after the addition of ABT
- time to full release of cytochrome c ([1]; after ABT addition): ≤ 2 h
- caspase 9 activation ([2]; RCC4 cells pre-treated with 2DG and bCD, 3 μM ABT): activated
- time to full caspase 9 activation ([2]; after ABT addition, RCC4 cells pre-treated with 2DG-bCD): ≤ 2 h
- Bak-Bcl-xL complex [3]: caused the dissociation

SMILES: O=CC[C@@H](O)[C@H](O)[C@H](O)CO [2DG, 2-deoxyglucose]
- AKT phosphorylation [4]: increasing the phosphorylation of AKT

SMILES: OC[C@H]1O[C@@H]2O[C@H]3[C@H](O)[C@@H](O)[C@@H](O[C@H]4[C@H](O)[C@@H](O)[C@@H](O[C@H]5[C@H](O)[C@@H](O)[C@@H](O[C@H]6[C@H](O)[C@@H](O)[C@@H](O[C@H]7[C@H](O)[C@@H](O)[C@@H](O[C@H]1[C@H](O)[C@H]2O)O[C@@H]7CO)O[C@@H]6CO)O[C@@H]5CO)O[C@@H]4CO)O[C@@H]3CO [α-cyclodextrin]
- enhancement of the combination effect of 2DG-ABT (live cells) [5]: little enhanced

SMILES: OC[C@H]1O[C@@H]2O[C@H]3[C@H](O)[C@@H](O)[C@@H](O[C@H]4[C@H](O)[C@@H](O)[C@@H](O[C@H]5[C@H](O)[C@@H](O)[C@@H](O[C@H]6[C@H](O)[C@@H](O)[C@@H](O[C@H]7[C@H](O)[C@@H](O)[C@@H](O[C@H]8[C@H](O)[C@@H](O)[C@@H](O[C@H]1[C@H](O)[C@H]2O)O[C@@H]8CO)O[C@@H]7CO)O[C@@H]6CO)O[C@@H]5CO)O[C@@H]4CO)O[C@@H]3CO [β-cyclodextrin]
- AKT activation (phosphorylation) [6]: lowered
- enhancement of the combination effect of 2DG-ABT (live cells) [5]: clearly enhanced
